Read-outs that look alike come from different tables or passages of the source.

The values that follow come from patent publication US20240174637A1, “DEGRADERS OF GRK2 AND USES THEREOF” (Sonata Therapeutics, Inc., priority 2021, published 2024).

Common to all, as to format: cell-based
For assay [1], the system named is PAXF1657 EV. As to the kind of experiment: 7-day cellular proliferation assay (CellTiter-Glo), PAXF1657 EV. How it is done: (§1) In order to identify compounds specific for GRK2, we generated two isogenic cell line pairs of the pancreatic cancer cell line PAXF1657, a pair of cells stably overexpressing GRK2 cDNA or the control empty vector and a cell line pair of PAXF1657 GRK2 knockout clonal cells versus non-targeting control clonal cells.
(§2) Proliferation Assay: Cellular anti-proliferative activity of compounds was assessed by using the pancreatic cancer cell line, PAXF1657, stably overexpressing GRK2 cDNA or the control empty vector, as well as the parental urinary bladder cancer cell line, 5637. In addition, we also took advantage of GRK2 knockout cell lines that were generated via CRISPR. Cell lines were seeded into tissue culture treated, white-walled, 96-well plates at a density of 500 cells/well in RPMI1640 media supplemented with 10% H.I. FBS and penicillin/streptomycin. Plates were incubated overnight at 37° C., 5% CO2 to allow cells to adhere to the wells. GRK2 inhibitors were added to the cells using a 10-point dilution series with a final concentration ranging from 30 μM-0.0002 μM in 0.3% DMSO. At the time of compound addition, a set of plates, that were not treated with compounds, were collected and cell viability was measured using CellTiter-Glo (Promega). CellTiter-Glo reagent was added to the designed plates and luminescence was measuring using a Biotek Synergy plate reader. The compound treated cells were incubated for 3 days at 37° C., 5% CO2. The media was then aspirated from each well and replaced with fresh media containing GRK2 inhibitors. The compound treated cells were then incubated for an additional 4 days at 37° C., 5% CO2. Cell viability was assessed and at end of the 7-day compound treatment by CellTiterGlo.

The test system of assay [2] is PAXF1657 KO Clone #4. As to the kind of experiment: 7-day cellular proliferation assay (CellTiter-Glo), PAXF1657 KO Clone #4. On the procedure:
as §1, §2

The target in assay [3] is T1, GRK2 (Homo sapiens, UniProt P25098).
T1 sequence (P25098 1-689): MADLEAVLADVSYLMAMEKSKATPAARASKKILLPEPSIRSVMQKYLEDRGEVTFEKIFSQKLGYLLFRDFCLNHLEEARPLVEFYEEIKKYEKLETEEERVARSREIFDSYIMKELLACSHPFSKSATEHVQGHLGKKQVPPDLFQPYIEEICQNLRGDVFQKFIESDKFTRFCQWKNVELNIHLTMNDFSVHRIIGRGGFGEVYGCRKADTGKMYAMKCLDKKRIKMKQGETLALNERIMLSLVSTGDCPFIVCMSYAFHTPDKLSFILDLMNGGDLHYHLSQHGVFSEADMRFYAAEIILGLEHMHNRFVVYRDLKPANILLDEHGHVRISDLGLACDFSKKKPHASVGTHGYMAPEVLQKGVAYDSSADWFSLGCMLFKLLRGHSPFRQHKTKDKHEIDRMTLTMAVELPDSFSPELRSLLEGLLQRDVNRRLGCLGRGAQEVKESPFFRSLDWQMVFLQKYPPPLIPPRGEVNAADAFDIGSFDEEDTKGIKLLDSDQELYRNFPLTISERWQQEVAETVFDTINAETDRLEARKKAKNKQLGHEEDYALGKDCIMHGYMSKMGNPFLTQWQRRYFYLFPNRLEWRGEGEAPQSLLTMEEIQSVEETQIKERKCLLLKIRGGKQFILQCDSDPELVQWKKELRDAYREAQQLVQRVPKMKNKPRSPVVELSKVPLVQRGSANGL
As to the kind of experiment: GRK2 Degradation Assay and Western Blot in PAXF1657 cells. Further details: endogenous in cells; host or cells: PAXF1657. How it is done:
General Protocol: Degradation Assay and Western Blot. PAXF1657 cells were plated in 6-well, 24-well plates or 60 mm tissue culture treated dishes and incubated at 37° C. until 70% confluency. The media was aspirated, and the cells were treated with fresh media containing the compounds in the concentration range of 0 μM to 10 μM for a period of 6 to 24 hours. At the desired time points the cells were washed twice with cold PBS and lysed with lysis buffer (ice cold PBS+1% NP40 with 1/100 protease/phosphatase inhibitors) on ice for 8 mins followed by sonication at 70% intensity pulses for 10 seconds. The cells were centrifuged at 20000 g for 8 min at 4° C. The supernatants were collected and stored at −80° C.
Samples were mixed with NuPAGE LDS sample buffer and NuPAGE sample reducing buffer (3×), vortexed and heated at 95° C. for 10 min, and then analyzed by SDS-PAGE (NuPAGE 4-12%) followed by transfer to nitrocellulose membrane. […] The membranes were washed three times with TBST and incubated with GRK2 or R-actin antibodies in 5% milk in TBST at 4° C. overnight. The membranes were washed three times with TBST and incubated with anti-mouse IgG-HRP or anti-rabbit IgG-HRP at room temperature for 2 hours in 5% milk in TBST. The membranes were washed three times with TBST and developed with ECL Dura, ECL femto or ECL atto substrates.
For orientation: Immunoblotting shows a protein as a band on a membrane.

Where [4] appears, read: 168 h, 7-day, read-out: 7-day proliferation assay: IC50 GeoMean (uM) [Cell Line: PAXF1657 EV].
Where [5] appears, read: 168 h, 7-day, read-out: 7-day proliferation assay: IC50 GeoMean (uM) [Cell Line: PAXF1657 KO Clone #4].
Setting [6] is: 0.3 uM, PAXF1657 EV, 24 hrs, read-out: % GRK2 degradation at 0.3 uM in PAXF1657 EV (24 hrs).
Where [7] appears, read: 1 uM, PAXF1657 EV, 24 hrs, read-out: % GRK2 degradation at 1 uM in PAXF1657 EV (24 hrs).
The mark [8] stands for this setting: 3 uM, PAXF1657 EV, 24 hrs, read-out: % GRK2 degradation at 3 uM in PAXF1657 EV (24 hrs).
The mark [9] stands for this setting: Conc 0.3 uM, read-out: Degradation Assay - 3 point: Degradation (%).
[10] abbreviates: Conc 1 uM, read-out: Degradation Assay - 3 point: Degradation (%).
The mark [11] stands for this setting: Conc 3 uM, read-out: Degradation Assay - 3 point: Degradation (%).

Regarding `Cn1c(CNc2cccc(C(=O)NCc3cccc(OCCCCCn4cc(CCCCC(=O)Nc5cccc6c5CN(C5CCC(=O)NC5=O)C6=O)nn4)c3)c2)nnc1-c1ccncn1` (stereo not drawn) [Compound D58], the values for the IC50 in assay [1] (setting [4]) and in assay [2] (setting [5]) were 1 to 10 µM and over 10 µM, respectively. In assay [3] (setting [6]), the inhibition at 0.3 µM is 7%. Also, the inhibition at 1 µM in assay [3] (setting [7]) is 41%. For the same compound, in assay [3] (setting [8]), the inhibition at 3 µM turned out to be 68%.

With `Cn1c(CNc2cccc(C(=O)NCc3cccc(OCCCCCCCn4cc(CCCC(=O)Nc5cccc6c5CN(C5CCC(=O)NC5=O)C6=O)nn4)c3)c2)nnc1-c1ccncn1` (stereo not drawn) [Compound D61], the IC50 in assay [1] (setting [4]) and in assay [2] (setting [5]) was over 10 µM each time. For the same compound, in assay [3] (setting [6]), the inhibition at 0.3 µM amounted to 28%. Further, the inhibition at 1 µM in assay [3] (setting [7]) was found to be 55%. In assay [3] (setting [8]), the inhibition at 3 µM worked out at 52%.

As to `Cc1ncsc1-c1ccc(CNC(=O)[C@@H]2C[C@@H](O)CN2C(=O)[C@@H](NC(=O)CCCc2cn(CCCCCOc3cccc(CNC(=O)c4cccc(NCc5nnc(-c6ccncn6)n5C)c4)c3)nn2)C(C)(C)C)cc1` [Compound D81], the IC50 in assay [1] (setting [4]) and in assay [2] (setting [5]) was over 10 µM in each case. Also, in assay [3] (setting [6]), the inhibition at 0.3 µM was -3%. For the same compound, in assay [3] (setting [7]), the inhibition at 1 µM stood at 1%. In addition, the inhibition at 3 µM in assay [3] (setting [8]) came out at 5%.

Turning to `Cn1c(CNc2cccc(C(=O)NCc3cccc(OCCOCCOCCOCCC(=O)Nc4cccc5c4CN(C4CCC(=O)NC4=O)C5=O)c3)c2)nnc1-c1ccncn1` (stereo not drawn) [Compound D107], the IC50 in assay [1] (setting [4]) and in assay [2] (setting [5]) was over 10 µM each time. In addition, the inhibition at 1 µM in assay [3] (setting [7]) is 19%. For the same compound, in assay [3] (setting [8]), the inhibition at 3 µM was 20%.

With `Cn1c(CNc2cccc(C(=O)NCc3cccc(OCCCCCC(=O)NCCOCCOCCOCCC(=O)Nc4cccc5c4CN(C4CCC(=O)NC4=O)C5=O)c3)c2)nnc1-c1ccncn1` (stereo not drawn) [Compound D113], the IC50 in assay [1] (setting [4]) and in assay [2] (setting [5]) was over 10 µM throughout. Besides, the inhibition at 1 µM in assay [3] (setting [7]) is -6%. For the same compound, the inhibition at 3 µM in assay [3] (setting [8]) is 0%.

Take `Cn1c(CNc2cccc(C(=O)NCc3cccc(OCCCCCCC(=O)NCCOCCOCCOCCC(=O)Nc4cccc5c4CN(C4CCC(=O)NC4=O)C5=O)c3)c2)nnc1-c1ccncn1` (stereo not drawn) [Compound D114]: the IC50 in assay [1] (setting [4]) and in assay [2] (setting [5]) was over 10 µM each time. Moreover, the inhibition at 1 µM in assay [3] (setting [7]) worked out at 32%. In addition, the inhibition at 3 µM in assay [3] (setting [8]) turned out to be 15%.

Regarding `Cc1ncsc1-c1ccc(CNC(=O)[C@@H]2C[C@@H](O)CN2C(=O)[C@@H](NC(=O)CCOCCOCCOCCNC(=O)CCCCOc2cccc(CNC(=O)c3cccc(NCc4nnc(-c5ccncn5)n4C)c3)c2)C(C)(C)C)cc1` [Compound D115], the figures for the IC50 in assay [1] (setting [4]) and in assay [2] (setting [5]) were over 10 µM and 1 to 10 µM, respectively. In addition, the inhibition at 1 µM in assay [3] (setting [7]) is -14%. For the same compound, the inhibition at 3 µM in assay [3] (setting [8]) was -2%.

For `Cn1c(CNc2cccc(C(=O)N[C@H]3CCOc4ccc(OCCCCCOCCCOCC(=O)Nc5cccc6c5CN(C5CCC(=O)NC5=O)C6=O)cc43)c2)nnc1-c1ccncn1` (stereo partly drawn) [Compound D155, N-((4S)-6-(5-(3-(2-(2-(2,6-dioxopiperidin-3-yl)-1-oxoisoindolin-4-ylamino)-2-oxoethoxy)propoxy)pentyloxy)chroman-4-yl)-3-((4-methyl-5-(pyrimidin-4-yl)-4H-1,2,4-triazol-3-yl)methylamino)benzamide], the IC50 is over 30 µM in assay [1] (proliferation, read-out: GeoMean IC50 (UM) PAXF1657 EV) and over 30 µM in assay [2] (proliferation, read-out: GeoMean IC50 (uM) PAXF1657 KO Clone #4). Moreover, the inhibition at 0.3 µM in assay [3] (setting [9]) was found to be 61.9%. The inhibition at 1 µM in assay [3] (setting [10]) was 58.1%. The inhibition at 3 µM in assay [3] (setting [11]) was -21.9%.

`Cc1ncsc1-c1ccc(CNC(=O)[C@@H]2C[C@@H](O)CN2C(=O)[C@@H](NC(=O)COCCCOCCCCCOc2cccc([C@H](C)NC(=O)c3cccc(NCc4nnc(-c5ccncn5)n4C)c3)c2)C(C)(C)C)cc1` [Compound D184, (2S,4R)-1-((S)-3,3-dimethyl-2-(2-(3-((5-(3-((S)-1-(3-(((4-methyl-5-(pyrimidin-4-yl)-4H-1,2,4-triazol-3-yl)methyl)amino)benzamido)ethyl)phenoxy)pentyl)oxy)propoxy)acetamido)butanoyl)-4-hydroxy-N-(4-(4-methylthiazol-5-yl)benzyl)pyrrolidine-2-carboxamide]: the inhibition at 0.3 µM in assay [3] (setting [9]) is 1.96%. Besides, in assay [3] (setting [10]), the inhibition at 1 µM was 17.7%. In addition, the inhibition at 3 µM in assay [3] (setting [11]) was determined as 20.6%.

In the case of `Cn1c(CNc2cccc(C(=O)N[C@@H]3CCOc4ccc(OCCCCCOCCCOCC(=O)Nc5cccc6c5CN(C5CCC(=O)NC5=O)C6=O)cc43)c2)nnc1-c1ccncn1` (stereo partly drawn) [Compound D192, N-((4R)-6-(5-(3-(2-(2-(2,6-dioxopiperidin-3-yl)-1-oxoisoindolin-4-ylamino)-2-oxoethoxy)propoxy)pentyloxy)chroman-4-yl)-3-((4-methyl-5-(pyrimidin-4-yl)-4H-1,2,4-triazol-3-yl)methylamino)benzamide], the inhibition at 0.3 µM in assay [3] (setting [9]) is 13.5%. The inhibition at 1 µM in assay [3] (setting [10]) stood at 37.4%. The inhibition at 3 µM in assay [3] (setting [11]) was 56.2%.

Regarding `C[C@H](NC(=O)c1cccc(NCc2nnc(-c3ccncn3)n2C)c1)c1cccc(OCCCCCCOCCOCC(=O)Nc2cccc3c2CN(C2CCC(=O)NC2=O)C3=O)c1` (stereo partly drawn) [Compound D193, N-((1S)-1-(3-((6-(2-(2-((2-(2,6-dioxopiperidin-3-yl)-1-oxoisoindolin-4-yl)amino)-2-oxoethoxy)ethoxy)hexyl)oxy)phenyl)ethyl)-3-(((4-methyl-5-(pyrimidin-4-yl)-4H-1,2,4-triazol-3-yl)methyl)amino)benzamide], the inhibition at 0.3 µM in assay [3] (setting [9]) was 19.3%. In addition, in assay [3] (setting [10]), the inhibition at 1 µM is 16.7%. Also, the inhibition at 3 µM in assay [3] (setting [11]) was determined as 29.6%.

For the compound `C[C@@H](NC(=O)c1cccc(NCc2nnc(-c3ccncn3)n2C)c1)c1cccc(OCCCCCOCCCOCC(=O)Nc2cccc3c2CN(C2CCC(=O)N(C)C2=O)C3=O)c1` (stereo partly drawn) [Compound D194, N-((1R)-1-(3-((5-(3-(2-((2-(1-methyl-2,6-dioxopiperidin-3-yl)-1-oxoisoindolin-4-yl)amino)-2-oxoethoxy)propoxy)pentyl)oxy)phenyl)ethyl)-3-(((4-methyl-5-(pyrimidin-4-yl)-4H-1,2,4-triazol-3-yl)methyl)amino)benzamide], the inhibition at 0.3 µM in assay [3] (setting [9]) turned out to be 25%. In addition, in assay [3] (setting [10]), the inhibition at 1 µM is 15%. In assay [3] (setting [11]), the inhibition at 3 µM came out at 0%.
